pIC50: −log10 of the molar value. Read-outs that look alike come from different tables or passages of the source.
Columns and labels:
HIV-1 strain HTLVIIIB = test: Inhibition of HIV-1 HTLVIIIB replication in PBMC (p24 antigen EIA); format: cell-based; details: for pIC50: HIV-1 HTLVIIIB in human PBMC, p24 on day 7, read-out: IC50 HTLVHIB
Method: (§1) Normal human peripheral blood mononuclear cells (PBMNC) from HIV-negative donors were cultured 72 hours in RPMI 1640 supplemented with 20% (v/v) heat-inactivated fetal bovine serum (FBS), 3% interleukin-2, 2 mM L-glutamine, 25 mM HEPES, 2 g/L NaHCO3, 50 μg/mL gentamicin, and 4 μg/mL phytohemagglutinin prior to exposure to the HIV-1 strain HTLVIIIB. The cells were then infected with virus at a multiplicity of infection (MOI) of 0.1 during a 1-hour adsorption period at 37° C. in a humidified 5% CO2 atm. Subsequently, cells were cultured in 96-well microtiter plates (100 μl/well; 2×10^6 cells/mL) in the presence of various inhibitor concentrations. Aliquots of culture supernatants were removed from the wells on the 7th day after infection for p24 antigen assays. The applied p24 enzyme immunoassay (EIA) was the unmodified kinetic assay commercially available from Coulter Corporation/Immunotech, Inc. (Westbrooke, Me.), which utilizes a murine mAb to HIV core protein coated onto microwell strips to which the antigen present in the test culture supernatant samples binds. Percent viral inhibition was calculated by comparing the p24 values from the test substance-treated infected cells with p24 values from untreated infected cells (i.e., virus controls). The effects of various treatments on cell viability were also examined and the results were expressed as the cytotoxic concentration (CC)50 values. The selectivity indices (SI) were calculated using the formula: SI=CC50/IC50.

[1] = system: NNRTI-resistant HIV-1 strain A17 with a Y181C mutation in RT; test: microbe, parasite or virus in culture; format: cell-based; details: for effective concentrations against NNRTI-resistant HIV-1 isolate A17 (in words): both NNRTI-resistant isolates
[2] = system: human peripheral blood mononuclear cells (PBMC); test: Cell viability / cytotoxicity in PBMC; format: cell-based; details: for CC50: cytotoxic concentration, PBMC viability
Method: as §1

[3] = system: A17 variant with Y181C plus K103N mutations in RT; test: microbe, parasite or virus in culture; format: cell-based, HIV-1; details: for effective concentrations against NNRTI-resistant HIV-1 isolate A17 variant (in words): both NNRTI-resistant isolates
[4] = NNRTI-resistant HIV, A17 (Y181C), read-out: IC50 A17
[5] = Human immunodeficiency virus 1, 168 h
[6] = Human immunodeficiency virus 1, read-out: IC50 A17
[7] = Human immunodeficiency virus 1, read-out: IC50 A17 variant
[8] = NNRTI-resistant HIV, A17 variant (Y181C plus K103N), read-out: IC50 A17 variant

Compound | IC50 values, inhibition of HIV-1 replication (in words) (HIV-1 strain HTLVIIIB) | pIC50 (HIV-1 strain HTLVIIIB) | CC50 [2] | pIC50 [3, 8] | also measured
N-[2-(2-Thiophenylethyl)]-N′-[2-(thiazolyl)]thiourea [Compound 1] | subnanomolar | > 9.00 | 71 µM | – | pIC50 [1, 4]: < 4.00
Cc1ccnc2c1NC(=O)c1cccnc1N2C1CC1 [Nevirapine, reference compound] | – | – | – | – | pIC50 (HIV-1 strain HTLVIIIB; [5]): 7.47; pIC50 [1, 6]: < 4.00; pIC50 [3, 7]: < 4.00
N-[2-(2-Indole)ethyl]-N′-[2-(thiazolyl)]thiourea [Compound 8] | subnanomolar | > 9.00 | 28 µM | – | effective concentrations against NNRTI-resistant HIV-1 isolate A17 (in words) [1]: nanomolar to low micromolar; effective concentrations against NNRTI-resistant HIV-1 isolate A17 variant (in words) [3]: nanomolar to low micromolar
CC(C)Nc1cccnc1N1CCN(C(=O)c2cc3cc(NS(C)(=O)=O)ccc3[nH]2)CC1 [Delavirdine, reference compound] | – | – | – | – | pIC50 (HIV-1 strain HTLVIIIB; [5]): 8.05; pIC50 [1, 6]: 4.30; pIC50 [3, 7]: < 4.00
N-[2-(4-Methylphenyl)ethyl]-N′-[2-(thiazolyl)]thiourea [Compound 4] | – | 7.15 | > 100 µM | < 4.00 | –
N-[3-(Pyrrolidinone)propyl]-N′-[2-(thiazolyl)]thiourea [Compound 12] | – | 5.05 | 18 µM | – | –
N-[2-(4-Hydroxyphenyl)ethyl]-N′-[2-(thiazolyl)]thiourea [Compound 10] | – | < 4.00 | – | – | –
N-[2-Pyridylethyl]-N′-[2-(thiazolyl)]thiourea [Compound 11] | – | 6.00 | 100 µM | – | –
N-[3-(2-Imidazole)propyl]-N′-[2-(thiazolyl)]thiourea [Compound 7] | subnanomolar | > 9.00 | 35 µM | < 4.00 | pIC50 [1, 4]: < 4.00
N-[2-(Phenoxyethyl)]-N′-[2-(thiazolyl)]thiourea [Compound 3] | subnanomolar | > 9.00 | > 100 µM | < 4.00 | –
N-[2-(1-Cyclohexenylethyl)]-N′-[2-(thiazolyl)]thiourea [Compound 2] | – | 8.15 | 4 µM | < 4.00 | pIC50 [1, 4]: 6.05
N-[1-(1-Adamantyl)methyl]-N′-[2-(thiazolyl)]thiourea [Compound 5] | subnanomolar | > 9.00 | 40 µM | – | pIC50 [1, 4]: 6.22; effective concentrations against NNRTI-resistant HIV-1 isolate A17 (in words) [1]: nanomolar to low micromolar; effective concentrations against NNRTI-resistant HIV-1 isolate A17 variant (in words) [3]: nanomolar to low micromolar
N-[1-(1-Furoylmethyl)]-N′-[2-(thiazolyl)]thiourea [Compound 6] | subnanomolar | > 9.00 | > 100 µM | 6.22 | effective concentrations against NNRTI-resistant HIV-1 isolate A17 (in words) [1]: nanomolar to low micromolar; toxicity to PBMC (in words) [2]: minimally toxic; effective concentrations against NNRTI-resistant HIV-1 isolate A17 variant (in words) [3]: nanomolar to low micromolar
N-[2-(2-Piperdine)ethyl]-N′-[2-(thiazolyl)]thiourea [Compound 9] | – | < 4.00 | – | – | –

— patent US6960606B2, “Adamantyl Thiazole Thioureas” (Parker Hughes Institute, priority 2000, dated 2005)
